These results are taken from patent US6608082B1, “Treatment of erectile dysfunction using isoquinoline compound melanocortin receptor ligands” (Lion Bioscience AG, priority 1998, dated 2003).

Several values for one entry are separate records, joined by “and”; a condition that tells them apart may be missing. Equal values may be shown once. Read-outs that look alike come from different tables or passages of the source. A value given as a limit tells only on which side of the number the result lay.

One assay concerns the target T1, MCR-1 (Homo sapiens, UniProt Q01726).
T1 construct: expressed in transfected cells; host or cells: HEK 293
Kind of assay: Melanocortin receptor binding assay, competition with 125I-HP 467, HEK 293 cells expressing hMCR-1. The conditions noted are these: for % Disp. of 125I-HP 467 (first of duplicate) / % Disp. of 125I-HP 467 (second of duplicate): 10 μM isoquinoline compound; for % Disp. of 125I-HP 467 (first of duplicate): HEK 293 cells expressing MCR-1, duplicate 1; for % Disp. of 125I-HP 467 (second of duplicate): HEK 293 cells expressing MCR-1, duplicate 2; for specificity for at least one MC receptor over another MC receptor: MCR-1 versus MCR-4 binding; for effectiveness as MC receptor ligand: binding to MC receptors, Table 1; for IC50: read-out: MC-1 IC50. The method in brief:
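Test compounds compete on intact HEK 293 cells carrying hMCR-1 (2×10^4 per tube) or hMCR-4 (4×10^3 per tube), suspended in PBS, 10% calf serum, 1 mM CaCl2.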

The test system of a further assay is IL-10. Kind of assay: Increasing levels of IL-10 in mice (plasma ELISA). Type of assay: in vivo. The settings on record: for % IL-10 Induction, IP 30: 30 μg per mouse; for % IL-10 Induction, IP 300 / % IL-10 Induction, Oral 300: 300 μg per mouse; for % IL-10 Induction, Oral 600: 600 μg per mouse. The method in brief:
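Mice were dosed intraperitoneally at 30, 100 or 300 μg/mouse or orally at 300 or 600 μg/mouse, and plasma was sampled 90 or 105 min post-dose. IL-10 was quantified by sandwich ELISA (rat anti-mouse capture, biotinylated detection antibody, streptavidin-HRP/TMB) against IL-10 standards.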

For a further assay, the target named is T2, MCR-3 (Homo sapiens, UniProt P41968).
T2 construct: expressed in transfected cells; host or cells: HEK 293
T2 sequence (P41968 whole entry): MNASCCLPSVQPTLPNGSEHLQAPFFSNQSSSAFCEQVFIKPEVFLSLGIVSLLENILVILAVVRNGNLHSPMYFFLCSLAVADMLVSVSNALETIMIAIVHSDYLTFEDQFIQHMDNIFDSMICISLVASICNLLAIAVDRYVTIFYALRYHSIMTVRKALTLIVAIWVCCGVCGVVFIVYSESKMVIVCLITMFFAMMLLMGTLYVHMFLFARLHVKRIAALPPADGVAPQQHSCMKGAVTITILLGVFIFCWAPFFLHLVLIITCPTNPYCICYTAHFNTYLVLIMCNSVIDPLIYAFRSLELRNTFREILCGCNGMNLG
Put plainly: Melanocortin receptor binding assay, competition with 125I-HP 467, HEK 293 cells expressing hMCR-3. The settings on record: binding to MCR-3, HEK 293 cells; read-out: MC-3 IC50. From the text: All cell culture media and reagents were obtained from GibcoBRL (Gaithersburg Md.), except for COSMIC CALF SERUM (HyClone; Logan Utah). HEK-293 cell lines were transfected with the human MC receptors hMCR-1, hMCR-3, and hMCR-4 (Gantz et al., Biochem. Biophys. Res. Comm. 200:1214-1220 (1994); Gantz et al., J. Biol. Chem. 268:8246-8250 (1993); Gantz et al. J. Biol. Chem. 268:15174-15179 (1993); Haskell-Leuvano et al., Biochem. Biophys. Res. Comm. 204:1137-1142 (1994); each of which is incorporated herein by reference). Vectors for construction of an hMCR-5 expressing cell line were obtained, and a line of HEK 293 cells expressing hMCR-5 was constructed (Gantz, supra, 1994). hMCR-5 has been described previously (Franberg et al., Biochem. Biophys. Res. Commun. 236:489-492 (1997); Chowdhary et al., Cytogenet. Cell Genet. 68:1-2 (1995); Chowdhary et al., Cytogenet. Cell Genet. 68:79-81 (1995), each of which is incorporated herein by reference). HEK 293 cells were maintained in DMEM, 25 mM HEPES, 2 mM glutamine, non-essential amino acids, vitamins, sodium pyruvate, 10% COSMIC CALF SERUM, 100 units/ml penicillin, 100 μg/ml streptomycin and 0.2 mg/ml G418 to maintain selection.
Before assaying, cells were washed once with phosphate buffered saline (“PBS”; without Ca^2+ and Mg^2+), and stripped from the flasks using 0.25% trypsin and 0.5 mM EDTA. Cells were suspended in PBS, 10% COSMIC CALF SERUM and 1 mM CaCl2. Cell suspensions were prepared at a density of 2×10^4 cells/ml for HEK 293 cells expressing hMCR-3, hMCR-4 or hMCR-5, and 1×10^5 cells/ml for HEK 293 cells expressing hMCR-1. Suspensions were placed in a water bath and allowed to warm to 37° C. for 1 hr.
Binding assays were performed in a total volume of 250 μl for HEK 293 cells. Control and test compounds were dissolved in distilled water. ^125I-HP 467 (50,000 dpm) (2000 Ci/mmol) (custom labeled by Amersham; Arlington Heights Ill.) was prepared in 50 mM Tris, pH 7.4, 2 mg/ml BSA, 10 mM CaCl2, 5 mM MgCl2, 2 mM EDTA and added to each tube. To each tube was added 4×10^3 HEK 293 cells expressing hMCR-3, hMCR-4 or hMCR-5, or 2×10^4 cells expressing hMCR-1. Assays were incubated for 2.5 hr at 37° C.
GF/B filter plates were prepared by soaking for at least one hour in 5 mg/ml BSA and 10 mM CaCl2. Assays were filtered using a Brandel 96-well cell harvester (Brandel Inc.; Gaithersburg, Md.). The filters were washed four times with cold 50 mM Tris, pH 7.4, the filter plates were dehydrated for 2 hr and 35 μl of MICROSCINT was added to each well. Filter plates were counted using a Packard Topcount (Packard Instrument Co.) and data analyzed using GraphPad PRISM v2.0 (GraphPad Software Inc.; San Diego Calif.) and Microsoft EXCEL v5.0a (Microsoft Corp.; Redmond Wash.).
To assay isoquinoline compounds, binding assays were performed in duplicate in a 96 well format. HP 467 was prepared in 50 mM Tris, pH 7.4, and ^125I-HP 467 was diluted to give 100,000 dpm per 50 μl. An isoquinoline compound, synthesized as described in Example I, was added to the well in 25 μl aliquots. A 25 μl aliquot of ^125I-HP 467 was added to each well. A 0.2 ml aliquot of suspended cells was added to each well to give the cell numbers indicate above, and the cells were incubated at 37° C. for 2.5 hr. Cells were harvested on GF/B filter plates as described above and counted.
Some of the isoquinoline compounds were further tested for binding to MCR-3 and MCR-5.

Where [1] appears, read: IP, mouse plasma, 90 or 105 minutes.
The mark [2] stands for this setting: TRG 2408 and TRG 2409 libraries, inhibition of 125I-HP 467 binding.
[3] abbreviates: mouse plasma, 90 or 105 minutes.

T1 sequence (Q01726 whole entry): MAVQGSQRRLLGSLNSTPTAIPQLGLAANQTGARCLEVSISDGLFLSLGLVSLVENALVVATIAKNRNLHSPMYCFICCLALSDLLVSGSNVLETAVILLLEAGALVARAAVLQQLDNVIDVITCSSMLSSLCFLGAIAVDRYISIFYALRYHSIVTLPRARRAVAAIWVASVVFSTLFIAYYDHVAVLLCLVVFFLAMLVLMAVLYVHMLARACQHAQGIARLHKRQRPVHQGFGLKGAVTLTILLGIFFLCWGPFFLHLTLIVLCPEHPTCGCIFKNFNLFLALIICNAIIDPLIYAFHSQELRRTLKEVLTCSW

Turning to `CCCOc1ccc(C2C(CNC3CCCCC3)c3ccccc3CN2CCCCC(CN)NC)cc1` (centres unmarked) [TRG 2405-253], on MCR-1, the “% Disp. of 125I-HP 467 (first of duplicate)” value is 93.9%, the “% Disp. of 125I-HP 467 (second of duplicate)” value worked out at 92.2%, the “specificity for at least one MC receptor over another MC receptor” value was “about 10 fold” and the “effectiveness as MC receptor ligand” value was “particularly effective MC receptor ligands”. Also, in the assay with IL-10 (setting [1]), the “% IL-10 Induction, IP 30” value is reported as 7 ± 21% and the “% IL-10 Induction, IP 300” value was 325 ± 73 %. For the same compound, in the assay on IL-10 (plasma levels in mice), the “increase of IL-10” value is “particularly effective at increasing IL-10”. Besides, the IC50 at MCR-3 was 9680 nM.
For `CNC(CN)CCCCN1Cc2ccccc2C(CNC2CCCCC2)C1c1ccc2cccc(O)c2n1` (centres unmarked) [TRG 2405-262], on MCR-1, the “% Disp. of 125I-HP 467 (first of duplicate)” value was found to be 66.1% and the “% Disp. of 125I-HP 467 (second of duplicate)” value was determined as 66.8%. In the assay with IL-10 (setting [1]), the “% IL-10 Induction, IP 300” value stood at 191 ± 53 %. Further, the IC50 on MCR-3 was > 10000 nM.
With `CNC(CN)CCCCN1Cc2ccccc2C(CN)C1c1ccc(Cl)cc1Cl` (centres unmarked) [TRG 2407-39], at MCR-1 (TRG 2406 and TRG 2407 libraries, inhibition of binding of 125I-HP 467), the half-maximal inhibitory concentration (IC50) amounted to 910 nM. For the same compound, in the assay on IL-10 (setting [1]), the “% IL-10 Induction, IP 30” value is reported as 34 ± 13% and the “% IL-10 Induction, IP 300” value was determined as 366 ± 12 %. Besides, the IC50 at MCR-3 stood at 280 nM.
In the case of `CCNc1ccc(C2C(CNC3CCCCC3)c3ccccc3CN2CCCCC(CN)NC)cc1` (centres unmarked) [TRG 2408-30], at MCR-1, the “specificity for at least one MC receptor over another MC receptor” value is “about 10 fold” and the “effectiveness as MC receptor ligand” value is given as “particularly effective MC receptor ligands”. The IC50 at MCR-1 (setting [2]) is 1170 nM. In addition, in the assay on IL-10 (setting [1]), the “% IL-10 Induction, IP 30” value is on record as −20 ± 14% and the “% IL-10 Induction, IP 300” value was 24 ± 12%. For the same compound, in the assay on IL-10 (setting [3]), the “% IL-10 Induction, Oral 300” value was found to be 33 ± 18% and the “% IL-10 Induction, Oral 600” value is recorded as 136 ± 41 %. The “increase of IL-10” value in the assay with IL-10 (administered orally) is recorded as “particularly effective at increasing IL-10”. Besides, the “increase of IL-10” value in the assay on IL-10 (plasma levels in mice) is reported as “particularly effective at increasing IL-10”. Besides, the IC50 on MCR-3 was 40400 nM.
Take `CCNc1ccc(C2C(CNCc3ccccc3O)c3ccccc3CN2CCCC(CN)NCCc2ccccc2)cc1` (centres unmarked) [TRG 2408-57]: at MCR-1 (setting [2]), the IC50 was 280 nM. The “effectiveness as MC receptor ligand” value at MCR-1 was “particularly effective MC receptor ligands”. In addition, in the assay with IL-10 (setting [1]), the “% IL-10 Induction, IP 30” value was determined as 123 ± 30% and the “% IL-10 Induction, IP 300” value was determined as 386 ± 25 %. Besides, in the assay on IL-10 (IP, 100 μg per mouse, mouse plasma, 90 or 105 minutes), the “% IL-10 Induction, IP 100” value is 247 ± 75 % and 225 ± 31 %. Also, in the assay on IL-10 (setting [3]), the “% IL-10 Induction, Oral 300” value worked out at 57 ± 11 % and the “% IL-10 Induction, Oral 600” value was 104 ± 16 %. In addition, at MCR-3, the IC50 was determined as 5170 nM.
In the case of `CCNc1ccc(C2C(CNC3CCCCC3)c3ccccc3CN2CCCC(CN)NCCc2ccccc2)cc1` (centres unmarked) [TRG 2408-62], the IC50 on MCR-1 (setting [2]) was determined as 120 nM. In addition, at MCR-1, the “effectiveness as MC receptor ligand” value was “particularly effective MC receptor ligands”. For the same compound, in the assay with IL-10 (setting [1]), the “% IL-10 Induction, IP 30” value is given as 51 ± 15% and the “% IL-10 Induction, IP 300” value turned out to be 270 ± 71 %. In the assay on IL-10 (setting [3]), the “% IL-10 Induction, Oral 300” value was determined as 43 ± 20% and the “% IL-10 Induction, Oral 600” value came to 27 ± 10%. In addition, the IC50 on MCR-3 is 5710 nM.
